Experimental data as given in PubChem BioAssay AID330 (DTP/NCI, 2004).
Where “and” joins values, the source holds several entries; their conditions need not be identical. Identical values can stand only once. Toxic doses and inconclusive results are not listed. How the source made its calls: active means survival T/C of 150% or more; inactive means T/C below 125% in these data.

Test system: P388 leukemia ip, CD2F1 mice, survival T/C
Assay: NCI In Vivo Anticancer Drug Screen. Data for tumor model P388 Leukemia (intraperitoneal) in CD2F1 (CDF1) mice
Conditions: endpoint: median survival time, higher = longer survival
Method in brief: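 Mice carrying the transplanted tumor received test compound or vehicle. Survival was recorded in each group, and the value is the treated-group measurement divided by that of the vehicle-treated control group.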

[1] = dose: 100.0 mg/kg/injection, schedule: Q01DX001 (ip), vehicle: Klucel (hydroxypropylcellulose) (HPC)
[2] = dose: 200.0 mg/kg/injection, schedule: Q01DX001 (ip), vehicle: Klucel (hydroxypropylcellulose) (HPC)
[3] = dose: 12.5 mg/kg/injection, schedule: Q01DX009 (ip), vehicle: other
[4] = dose: 50.0 mg/kg/injection, schedule: Q01DX009 (ip), vehicle: saline with Tween-80
[5] = dose: 100.0 mg/kg/injection, schedule: Q01DX009 (ip), vehicle: saline with Tween-80
[6] = dose: 200.0 mg/kg/injection, schedule: Q01DX009 (ip), vehicle: saline with Tween-80
[7] = dose: 60.0 mg/kg/injection, schedule: Q01DX005 (ip), vehicle: saline with Tween-80

Measured: T/C

O=C(O)CCCC(=O)c1ccccc1
inactive: dose: 25.0 mg/kg/injection, schedule: Q01DX009 (ip), vehicle: saline 105 % of control | dose: 50.0 mg/kg/injection, schedule: Q01DX009 (ip), vehicle: saline 100 % of control | dose: 100.0 mg/kg/injection, schedule: Q01DX009 (ip), vehicle: saline 101 % of control | dose: 200.0 mg/kg/injection, schedule: Q01DX009 (ip), vehicle: saline 108 % of control

COC(=O)C1=C(N)N2C/C(=C/c3cccs3)SC2=C(C(=O)OC)C1c1cccs1 (stereo not given)
inactive: dose: 12.5 mg/kg/injection, schedule: Q01DX005 (ip), vehicle: saline with Tween-80 96 % of control | dose: 25.0 mg/kg/injection, schedule: Q01DX005 (ip), vehicle: saline with Tween-80 91 % of control | dose: 50.0 mg/kg/injection, schedule: Q01DX005 (ip), vehicle: saline with Tween-80 86 % of control and 91 % of control

CCOC(=O)C12C(C(=O)OC)=CC(=O)NC1(OCC)OC(C)C2C (stereo not given)
inactive: dose: 50.0 mg/kg/injection, schedule: Q01DX001 (ip), vehicle: Klucel (hydroxypropylcellulose) (HPC) 94 % of control | [1] 89 % of control | [2] 89 % of control

O=C(O)c1cc(NCCO)c(C(=O)O)cc1NCCO
inactive: dose: 50.0 mg/kg/injection, schedule: Q01DX005 (ip), vehicle: saline 97 % of control | dose: 100.0 mg/kg/injection, schedule: Q01DX005 (ip), vehicle: saline 100 % of control | dose: 200.0 mg/kg/injection, schedule: Q01DX005 (ip), vehicle: saline 91 % of control

CCC1=C[C@@H]2C[C@](C(=O)OC)(c3cc4c(cc3OC)N(C)[C@H]3[C@@](O)(C(=O)OC)[C@H](OC(C)=O)[C@]5(CC)C=CCN6CC[C@]43[C@@H]65)c3[nH]c4ccccc4c3CCN(C1)[C@@H]2O
inactive: dose: 2.5 mg/kg/injection, schedule: Q01DX001 (ip), vehicle: water 117 % of control | dose: 160.0 mg/kg/injection, schedule: Q01DX001 (ip), vehicle: water 93 % of control
active: dose: 20.0 mg/kg/injection, schedule: Q01DX001 (ip), vehicle: water 153 % of control and 159 % of control | dose: 40.0 mg/kg/injection, schedule: Q01DX001 (ip), vehicle: water 161 % of control and 170 % of control | dose: 80.0 mg/kg/injection, schedule: Q01DX001 (ip), vehicle: water 180 % of control

O=C(NC(Cc1cccc(F)c1)C(=O)O)c1ccccc1 (stereo not given)
inactive: dose: 6.25 mg/kg/injection, schedule: Q01DX009 (ip), vehicle: other 95 % of control | [3] 96 % of control

N=C(N)c1ccc(C#Cc2ccc(C(=N)N)cc2)cc1
inactive: dose: 3.13 mg/kg/injection, schedule: Q01DX009 (ip), vehicle: saline with Tween-80 94 % of control | dose: 6.25 mg/kg/injection, schedule: Q01DX009 (ip), vehicle: saline with Tween-80 92 % of control | dose: 12.5 mg/kg/injection, schedule: Q01DX009 (ip), vehicle: saline with Tween-80 95 % of control

CC(=O)OC1OC(COS(=O)(=O)c2ccc(C)cc2)C(OC(C)=O)C(OC(C)=O)C1OC(C)=O (stereo not given)
inactive: [3] 93 % of control | dose: 25.0 mg/kg/injection, schedule: Q01DX009 (ip), vehicle: other 90 % of control | dose: 100.0 mg/kg/injection, schedule: Q01DX009 (ip), vehicle: other 87 % of control | dose: 200.0 mg/kg/injection, schedule: Q01DX009 (ip), vehicle: other 92 % of control

O=C(CCl)c1ccc([N+](=O)[O-])cc1
inactive: dose: 1.56 mg/kg/injection, schedule: Q01DX005 (ip), vehicle: Klucel (hydroxypropylcellulose) (HPC) 100 % of control | dose: 3.12 mg/kg/injection, schedule: Q01DX005 (ip), vehicle: Klucel (hydroxypropylcellulose) (HPC) 100 % of control | dose: 6.25 mg/kg/injection, schedule: Q01DX005 (ip), vehicle: Klucel (hydroxypropylcellulose) (HPC) 108 % of control | dose: 12.5 mg/kg/injection, schedule: Q01DX005 (ip), vehicle: Klucel (hydroxypropylcellulose) (HPC) 89 % of control and 98 % of control | [4] 116 % of control

CC(=O)CC(=O)N1CCN(C(=O)CC(C)=O)CC1
inactive: dose: 100.0 mg/kg/injection, schedule: Q04DX003 (ip), vehicle: saline 104 % of control | dose: 200.0 mg/kg/injection, schedule: Q04DX003 (ip), vehicle: saline 100 % of control | dose: 400.0 mg/kg/injection, schedule: Q04DX003 (ip), vehicle: saline 100 % of control

CCOC(=O)c1ccc(NC(=O)N2CC(C)OC(C)C2)cc1 (stereo not given)
inactive: [4] 87 % of control | [5] 97 % of control | [6] 97 % of control

O=c1c2c(oc3ccccc13)Oc1oc3ccccc3c(=O)c1C2c1ccc2c(c1)OCO2
inactive: dose: 15.0 mg/kg/injection, schedule: Q01DX005 (ip), vehicle: saline with Tween-80 96 % of control | dose: 30.0 mg/kg/injection, schedule: Q01DX005 (ip), vehicle: saline with Tween-80 92 % of control and 96 % of control | [7] 91 % of control

O=c1ccn(C2OC(COC(c3ccccc3)(c3ccccc3)c3ccccc3)C(O)C2OC(c2ccccc2)(c2ccccc2)c2ccccc2)c(=O)[nH]1 (stereo not given)
inactive: dose: 25.0 mg/kg/injection, schedule: Q01DX005 (ip), vehicle: Klucel (hydroxypropylcellulose) (HPC) 97 % of control | dose: 50.0 mg/kg/injection, schedule: Q01DX005 (ip), vehicle: Klucel (hydroxypropylcellulose) (HPC) 99 % of control | dose: 100.0 mg/kg/injection, schedule: Q01DX005 (ip), vehicle: Klucel (hydroxypropylcellulose) (HPC) 94 % of control | dose: 200.0 mg/kg/injection, schedule: Q01DX005 (ip), vehicle: Klucel (hydroxypropylcellulose) (HPC) 93 % of control

Cc1ccc([SeH])cc1.[Sn]
inactive: dose: 25.0 mg/kg/injection, schedule: Q01DX009 (ip), vehicle: saline with Tween-80 92 % of control | [4] 94 % of control | [5] 86 % of control

COc1cc(/C=N\NC(=O)OC(C)(C)C)cc(OC)c1OC
inactive: dose: 50.0 mg/kg/injection, schedule: Q04DX003 (ip), vehicle: saline with Tween-80 100 % of control | dose: 100.0 mg/kg/injection, schedule: Q04DX003 (ip), vehicle: saline with Tween-80 91 % of control | dose: 200.0 mg/kg/injection, schedule: Q04DX003 (ip), vehicle: saline with Tween-80 91 % of control

COc1cc2c(c(OC)c1OC)-c1cc3c(cc1C(OC1OC(COC(C)=O)C(OC(C)=O)C(OC(C)=O)C1OC(C)=O)C1COC(=O)C1C2)OCO3 (stereo not given)
inactive: dose: 18.75 mg/kg/injection, schedule: Q01DX005 (ip), vehicle: Klucel (hydroxypropylcellulose) (HPC) 93 % of control | dose: 37.5 mg/kg/injection, schedule: Q01DX005 (ip), vehicle: Klucel (hydroxypropylcellulose) (HPC) 93 % of control | dose: 75.0 mg/kg/injection, schedule: Q01DX005 (ip), vehicle: Klucel (hydroxypropylcellulose) (HPC) 93 % of control | dose: 150.0 mg/kg/injection, schedule: Q01DX005 (ip), vehicle: Klucel (hydroxypropylcellulose) (HPC) 88 % of control

Cn1c(=O)c2nc(-c3ccc(Cl)c(Cl)c3)c(-c3ccc(Cl)c(Cl)c3)nc2n(C)c1=O
inactive: dose: 3.13 mg/kg/injection, schedule: Q01DX001 (ip), vehicle: saline with Tween-80 100 % of control | dose: 6.25 mg/kg/injection, schedule: Q01DX001 (ip), vehicle: saline with Tween-80 104 % of control | dose: 12.5 mg/kg/injection, schedule: Q01DX001 (ip), vehicle: saline with Tween-80 95 % of control | dose: 25.0 mg/kg/injection, schedule: Q01DX001 (ip), vehicle: saline with Tween-80 96 % of control | dose: 50.0 mg/kg/injection, schedule: Q01DX001 (ip), vehicle: saline with Tween-80 93 % of control | dose: 200.0 mg/kg/injection, schedule: Q01DX001 (ip), vehicle: saline with Tween-80 91 % of control

O=C(c1ccc2c(c1)OCO2)S(=O)(=O)O
inactive: dose: 60.0 mg/kg/injection, schedule: Q01DX005 (ip), vehicle: saline 102 % of control | dose: 120.0 mg/kg/injection, schedule: Q01DX005 (ip), vehicle: saline 96 % of control | dose: 240.0 mg/kg/injection, schedule: Q01DX005 (ip), vehicle: saline 97 % of control

CN(C)c1ccc(C2(C(=O)O)CCCC(C)(C)C2)cc1 (stereo not given)
inactive: [1] 95 % of control | [2] 95 % of control | dose: 400.0 mg/kg/injection, schedule: Q01DX001 (ip), vehicle: Klucel (hydroxypropylcellulose) (HPC) 92 % of control

Cc1cc(C)cc(-n2cccc2C(=O)O)c1
inactive: [7] 93 % of control | dose: 120.0 mg/kg/injection, schedule: Q01DX005 (ip), vehicle: saline with Tween-80 99 % of control | dose: 240.0 mg/kg/injection, schedule: Q01DX005 (ip), vehicle: saline with Tween-80 100 % of control

CCCn1c(O)c(C=N)c(=O)[nH]c1=O
inactive: [5] 87 % of control | [6] 95 % of control

CCOc1nc(N)nc(C)c1N=Nc1ccc(C)cc1
inactive: dose: 60.0 mg/kg/injection, schedule: Q01DX005 (ip), vehicle: Klucel + Tween-80 110 % of control | dose: 120.0 mg/kg/injection, schedule: Q01DX005 (ip), vehicle: Klucel + Tween-80 116 % of control | dose: 240.0 mg/kg/injection, schedule: Q01DX005 (ip), vehicle: Klucel + Tween-80 113 % of control
